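1) Cells in 96-well plates. 2) Compound, 48 h, 5 concentrations. 3) Linear interpolation between surrounding doses. 4) Unreached endpoint = highest concentration. GI50 marks 50% less growth. TGI: concentration producing complete growth inhibition.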
How the values were obtained:
Assay in all cases: NCI-60 cell line screen, 48 h
786-0 renal = system: 786-0 renal
A549 NSCLC = system: A549 NSCLC
ACHN renal = system: ACHN renal
CAKI-1 renal = system: CAKI-1 renal
CCRF-CEM leukemia = system: CCRF-CEM leukemia
COLO 205 colon = system: COLO 205 colon
DLD-1 colon = system: DLD-1 colon
DMS 114 small cell lung = system: DMS 114 small cell lung
DMS 273 small cell lung = system: DMS 273 small cell lung
EKVX NSCLC = system: EKVX NSCLC
HCC-2998 colon = system: HCC-2998 colon
HCT-116 colon = system: HCT-116 colon
HCT-15 colon = system: HCT-15 colon
HL-60(TB) leukemia = system: HL-60(TB) leukemia
HOP-18 NSCLC = system: HOP-18 NSCLC
HOP-62 NSCLC = system: HOP-62 NSCLC
HOP-92 NSCLC = system: HOP-92 NSCLC
HT29 colon = system: HT29 colon
IGROV1 ovarian = system: IGROV1 ovarian
K-562 leukemia = system: K-562 leukemia
KM12 colon = system: KM12 colon
KM20L2 colon = system: KM20L2 colon
LXFL 529 NSCLC = system: LXFL 529 NSCLC
M14 melanoma = system: M14 melanoma
M19-MEL melanoma = system: M19-MEL melanoma
MALME-3M melanoma = system: MALME-3M melanoma
MOLT-4 leukemia = system: MOLT-4 leukemia
NCI-H226 lung = system: NCI-H226 lung
NCI-H23 lung = system: NCI-H23 lung
NCI-H460 lung = system: NCI-H460 lung
NCI-H522 lung = system: NCI-H522 lung
OVCAR-3 ovarian = system: OVCAR-3 ovarian
OVCAR-4 ovarian = system: OVCAR-4 ovarian
OVCAR-5 ovarian = system: OVCAR-5 ovarian
OVCAR-8 ovarian = system: OVCAR-8 ovarian
RPMI-8226 leukemia = system: RPMI-8226 leukemia
RXF 393 renal = system: RXF 393 renal
SF-268 CNS = system: SF-268 CNS
SF-295 CNS = system: SF-295 CNS
SF-539 CNS = system: SF-539 CNS
SK-MEL-2 melanoma = system: SK-MEL-2 melanoma
SK-MEL-28 melanoma = system: SK-MEL-28 melanoma
SK-MEL-5 melanoma = system: SK-MEL-5 melanoma
SK-OV-3 ovarian = system: SK-OV-3 ovarian
SN12C renal = system: SN12C renal
SNB-19 CNS = system: SNB-19 CNS
SNB-75 CNS = system: SNB-75 CNS
SR leukemia = system: SR leukemia
SW-620 colon = system: SW-620 colon
TK-10 renal = system: TK-10 renal
U251 CNS = system: U251 CNS
UACC-257 melanoma = system: UACC-257 melanoma
UACC-62 melanoma = system: UACC-62 melanoma
UO-31 renal = system: UO-31 renal
XF 498 CNS = system: XF 498 CNS
A498 renal = system: A498 renal
LOX IMVI melanoma = system: LOX IMVI melanoma
SNB-78 CNS = system: SNB-78 CNS

**Q.** How did the TGI (786-0 renal) turn out when COc1ccc2c3c([nH]c2c1CC=C(C)C)C(=O)C=C(C)C3=O was run?
**A.** > 25 µM

**Q.** And the TGI (A549 NSCLC)?
**A.** > 25 µM

**Q.** And the TGI (ACHN renal)?
**A.** > 25 µM

**Q.** And the TGI (CAKI-1 renal)?
**A.** > 25 µM

**Q.** What about the TGI (CCRF-CEM leukemia) of the same molecule?
**A.** > 25 µM

**Q.** What about the TGI (COLO 205 colon) of the same molecule?
**A.** > 25 µM

**Q.** And the TGI (DLD-1 colon)?
**A.** > 25 µM

**Q.** And the TGI (DMS 114 small cell lung)?
**A.** > 25 µM

**Q.** And the TGI (DMS 273 small cell lung)?
**A.** > 25 µM

**Q.** And the TGI (EKVX NSCLC)?
**A.** > 25 µM

**Q.** What about the TGI (HCC-2998 colon) of the same molecule?
**A.** > 25 µM

**Q.** What about the TGI (HCT-116 colon) of the same molecule?
**A.** > 25 µM

**Q.** And the TGI (HCT-15 colon)?
**A.** > 25 µM

**Q.** What about the TGI (HL-60(TB) leukemia) of the same molecule?
**A.** > 25 µM

**Q.** What about the TGI (HOP-18 NSCLC) of the same molecule?
**A.** > 25 µM

**Q.** And the TGI (HOP-62 NSCLC)?
**A.** > 25 µM

**Q.** What about the TGI (HOP-92 NSCLC) of the same molecule?
**A.** > 25 µM

**Q.** What about the TGI (HT29 colon) of the same molecule?
**A.** > 25 µM

**Q.** What about the TGI (IGROV1 ovarian) of the same molecule?
**A.** > 25 µM

**Q.** And the TGI (K-562 leukemia)?
**A.** > 25 µM

**Q.** And the TGI (KM12 colon)?
**A.** > 25 µM

**Q.** And the TGI (KM20L2 colon)?
**A.** > 25 µM

**Q.** What about the TGI (LXFL 529 NSCLC) of the same molecule?
**A.** > 25 µM

**Q.** And the TGI (M14 melanoma)?
**A.** > 25 µM

**Q.** What about the TGI (M19-MEL melanoma) of the same molecule?
**A.** > 25 µM

**Q.** What about the TGI (MALME-3M melanoma) of the same molecule?
**A.** > 25 µM

**Q.** What about the TGI (MOLT-4 leukemia) of the same molecule?
**A.** > 25 µM

**Q.** What about the TGI (NCI-H226 lung) of the same molecule?
**A.** > 25 µM

**Q.** And the TGI (NCI-H23 lung)?
**A.** > 25 µM

**Q.** What about the TGI (NCI-H460 lung) of the same molecule?
**A.** > 25 µM

**Q.** What about the TGI (NCI-H522 lung) of the same molecule?
**A.** > 25 µM

**Q.** And the TGI (OVCAR-3 ovarian)?
**A.** > 25 µM

**Q.** What about the TGI (OVCAR-4 ovarian) of the same molecule?
**A.** > 25 µM

**Q.** What about the TGI (OVCAR-5 ovarian) of the same molecule?
**A.** > 25 µM

**Q.** What about the TGI (OVCAR-8 ovarian) of the same molecule?
**A.** > 25 µM

**Q.** What about the TGI (RPMI-8226 leukemia) of the same molecule?
**A.** > 25 µM

**Q.** What about the TGI (RXF 393 renal) of the same molecule?
**A.** > 25 µM

**Q.** What about the TGI (SF-268 CNS) of the same molecule?
**A.** > 25 µM

**Q.** And the TGI (SF-295 CNS)?
**A.** > 25 µM

**Q.** What about the TGI (SF-539 CNS) of the same molecule?
**A.** > 25 µM

**Q.** And the TGI (SK-MEL-2 melanoma)?
**A.** > 25 µM

**Q.** And the TGI (SK-MEL-28 melanoma)?
**A.** > 25 µM

**Q.** What about the TGI (SK-MEL-5 melanoma) of the same molecule?
**A.** > 25 µM

**Q.** What about the TGI (SK-OV-3 ovarian) of the same molecule?
**A.** > 25 µM

**Q.** And the TGI (SN12C renal)?
**A.** > 25 µM

**Q.** What about the TGI (SNB-19 CNS) of the same molecule?
**A.** > 25 µM

**Q.** And the TGI (SNB-75 CNS)?
**A.** > 25 µM

**Q.** And the TGI (SR leukemia)?
**A.** > 25 µM

**Q.** And the TGI (SW-620 colon)?
**A.** > 25 µM

**Q.** What about the TGI (TK-10 renal) of the same molecule?
**A.** > 25 µM

**Q.** What about the TGI (U251 CNS) of the same molecule?
**A.** > 25 µM

**Q.** And the TGI (UACC-257 melanoma)?
**A.** > 25 µM

**Q.** And the TGI (UACC-62 melanoma)?
**A.** > 25 µM

**Q.** And the TGI (UO-31 renal)?
**A.** > 25 µM

**Q.** What about the TGI (XF 498 CNS) of the same molecule?
**A.** > 25 µM

**Q.** What does the source list for O=C1OC(c2cccc(C(F)(F)F)c2)(c2cccc(C(F)(F)F)c2)c2ccc3ccccc3c21?
**A.** GI50 (786-0 renal): > 100 µM; TGI (786-0 renal): > 100 µM; GI50 (A498 renal): > 100 µM; TGI (A498 renal): > 100 µM; GI50 (A549 NSCLC): > 100 µM; TGI (A549 NSCLC): > 100 µM; TGI (ACHN renal): > 100 µM; TGI (CAKI-1 renal): > 100 µM; GI50 (CCRF-CEM leukemia): 9.13 µM; TGI (CCRF-CEM leukemia): > 100 µM; GI50 (COLO 205 colon): > 100 µM; TGI (COLO 205 colon): > 100 µM; GI50 (DLD-1 colon): > 100 µM; TGI (DLD-1 colon): > 100 µM; GI50 (DMS 114 small cell lung): 4.44 µM; TGI (DMS 114 small cell lung): > 100 µM; GI50 (DMS 273 small cell lung): > 100 µM; TGI (DMS 273 small cell lung): > 100 µM; GI50 (EKVX NSCLC): > 100 µM; TGI (EKVX NSCLC): > 100 µM; GI50 (HCC-2998 colon): > 100 µM; TGI (HCC-2998 colon): > 100 µM; TGI (HCT-15 colon): > 100 µM; TGI (HL-60(TB) leukemia): > 100 µM; GI50 (HOP-18 NSCLC): > 100 µM; TGI (HOP-18 NSCLC): > 100 µM; GI50 (HOP-62 NSCLC): > 100 µM; TGI (HOP-62 NSCLC): > 100 µM; TGI (HOP-92 NSCLC): > 100 µM; GI50 (IGROV1 ovarian): > 100 µM; TGI (IGROV1 ovarian): > 100 µM; GI50 (K-562 leukemia): 4.29 µM; TGI (K-562 leukemia): > 100 µM; TGI (KM12 colon): > 100 µM; TGI (KM20L2 colon): > 100 µM; GI50 (LOX IMVI melanoma): > 100 µM; TGI (LOX IMVI melanoma): > 100 µM; GI50 (LXFL 529 NSCLC): 7.26 µM; TGI (LXFL 529 NSCLC): > 100 µM; GI50 (M14 melanoma): > 100 µM; TGI (M14 melanoma): > 100 µM; GI50 (MALME-3M melanoma): > 100 µM; TGI (MALME-3M melanoma): > 100 µM; GI50 (MOLT-4 leukemia): 7.21 µM; TGI (MOLT-4 leukemia): > 100 µM; TGI (NCI-H226 lung): > 100 µM; GI50 (NCI-H23 lung): 3.92 µM; TGI (NCI-H23 lung): > 100 µM; GI50 (OVCAR-3 ovarian): 22.4 µM; TGI (OVCAR-3 ovarian): > 100 µM; GI50 (OVCAR-4 ovarian): > 100 µM; TGI (OVCAR-4 ovarian): > 100 µM; GI50 (OVCAR-5 ovarian): > 100 µM; TGI (OVCAR-5 ovarian): > 100 µM; GI50 (OVCAR-8 ovarian): > 100 µM; TGI (OVCAR-8 ovarian): > 100 µM; GI50 (RPMI-8226 leukemia): 7.56 µM; TGI (RPMI-8226 leukemia): > 100 µM; TGI (RXF 393 renal): > 100 µM; TGI (SF-268 CNS): > 100 µM; TGI (SF-295 CNS): > 100 µM; TGI (SF-539 CNS): > 100 µM; GI50 (SK-MEL-2 melanoma): > 100 µM; TGI (SK-MEL-2 melanoma): > 100 µM; GI50 (SK-MEL-28 melanoma): > 100 µM; TGI (SK-MEL-28 melanoma): > 100 µM; GI50 (SK-MEL-5 melanoma): 5.26 µM; TGI (SK-MEL-5 melanoma): > 100 µM; GI50 (SK-OV-3 ovarian): > 100 µM; TGI (SK-OV-3 ovarian): > 100 µM; GI50 (SN12C renal): > 100 µM; TGI (SN12C renal): > 100 µM; TGI (SNB-19 CNS): > 100 µM; GI50 (SNB-75 CNS): > 100 µM; TGI (SNB-75 CNS): > 100 µM; GI50 (SNB-78 CNS): > 100 µM; TGI (SNB-78 CNS): > 100 µM; GI50 (SW-620 colon): > 100 µM; TGI (SW-620 colon): > 100 µM; GI50 (TK-10 renal): > 100 µM; TGI (TK-10 renal): > 100 µM; TGI (U251 CNS): > 100 µM; TGI (UACC-257 melanoma): > 100 µM; GI50 (UACC-62 melanoma): > 100 µM; TGI (UACC-62 melanoma): > 100 µM; GI50 (UO-31 renal): > 100 µM; TGI (UO-31 renal): > 100 µM; TGI (XF 498 CNS): > 100 µM
